From US20230210797A1, “PREVENTING AND TREATING HYPOGLYCEMIA” (DIAMYD MEDICAL AB, priority 2019, published 2023)
Entries after “also recorded” stand apart in the source; their conditions may differ.

Legend:
cortisol = assay: Hypoglycemic clamp: plasma cortisol levels; type: in vivo, human
Procedure: (§1) In order to evaluate the counterregulatory hormone response to hypoglycemia, a hypoglycemic clamp will be performed. The Hypoglycemic Clamp must be performed according to the instructions in the Operations Manual. (Appendix 3)
(§2) The patient should: • Come to the study site following an overnight fast (>10 hours), i.e. the patient may not eat but is permitted to drink water • Not have taken the Remygen and, if applicable, Alprazolam dose in the morning • Not take short acting/direct acting insulin within 6 hours before the investigation. • The patient is allowed to take base-insulin day/night before, but not in the morning before the investigation.
(§3) Patients with CSII (insulin pump) must continue with their basal dose insulin, but not add bolus dose during the last 6 hours before the investigation.
(§4) If a patient has a blood sugar level <4 mmol/L in the morning of the scheduled visit, the patient is allowed to take dextrose tablets and then come to the study site. The patient is allowed to perform the investigation if the blood sugar level is >4 mmol/L.
(§5) In the dose-escalation part of the study, the patient will take study drug 30 min prior to start of the hypoglycemic clamp. In the main study, the study drug will instead be taken after finalization of the hypoglycemic clamp. Baseline blood samples will be obtained for glucose, glucagon, epinephrine, norepinephrine, growth hormone and cortisol. The clamp will then be initiated by an intravenous insulin infusion at a rate of 2 mU×kg^−1×min^−1. Glucose 100 mg/ml will then be administered in variable infusion rates to clamp the blood glucose concentration at 5.5 mmol/land then at 2.5 mmol/land kept stable for 30 min. Blood glucose will be evaluated repeatedly in order to find the optimal glucose infusion rate. Blood sampling to determined levels of counterregulatory hormones as described above will be performed at each of these target levels when a stable glucose concentration has been reached. The insulin infusion will thereafter be terminated and the patient is allowed to eat and will be observed until normoglycemia is achieved. If necessary, additional glucose administration will be given to allow blood glucose concentrations to normalize.
Only patients with c-peptide levels that were undetectable (in a standard assay, i.e. <0.01 nmol/L) are included (5 of 6) in the data below.
Plasma levels of glucagon, cortisol, epinephrine, growth hormone and glucose were measured at baseline (increased glucose in T1D subjects). Plasma glucose was first lowered to normoglycemic levels (5.5 mmol/L) and hormone levels monitored, and then to hypoglycemic levels (2.5 mmol/L) and hormone levels monitored. Difference was calculated as a measurement of the response to hypoglycemia.

epinephrine = assay: Hypoglycemic clamp: plasma epinephrine levels; type: in vivo, human; details: for epinephrine levels, Change from baseline, Mean (SD) / epinephrine levels, Change from baseline, Median (Min, Max) / epinephrine levels, Observed value, Mean (SD) / epinephrine levels, Observed value, Median (Min, Max): C-peptide undetectable
Procedure: as §1, §2, §3, §4, §5
Plasma glucose was first lowered to normoglycemic levels (5.5 mmol/L) and hormone levels monitored, and then to hypoglycemic levels (2.5 mmol/L) and hormone levels monitored. Difference was calculated as a measurement of the response to hypoglycemia.

[1] = change in levels when clamping to 2.5 mmol/L from 5.5 mmol/L
[2] = Visit 5, 200 mg GABA per day, Event 2.5 mmol/L
[3] = Visit 5, 200 mg GABA per day, Event 5.5 mmol/L
[4] = Visit 5, 200 mg GABA per day, Event Baseline
[5] = Visit 5, 200 mg GABA per day, Event Diff 2.5-5.5 mmol/L
[6] = Visit 7, 600 mg GABA per day, Event 2.5 mmol/L
[7] = Visit 7, 600 mg GABA per day, Event 5.5 mmol/L
[8] = Visit 7, 600 mg GABA per day, Event Baseline
[9] = Visit 7, 600 mg GABA per day, Event Diff 2.5-5.5 mmol/L
[10] = Visit 9, 1200 mg GABA per day, Event 2.5 mmol/L
[11] = Visit 9, 1200 mg GABA per day, Event 5.5 mmol/L
[12] = Visit 9, 1200 mg GABA per day, Event Baseline
[13] = Visit 9, 1200 mg GABA per day, Event Diff 2.5-5.5 mmol/L

NCCCC(=O)O [GABA, Gamma-amino butyric acid]
Counter regulatory response of Cortisol, effect of GABA treatment (cortisol; [1]): increased | Normoglycemic levels of Cortisol, effect of GABA treatment (cortisol; clamped to 5.5 mmol/L): decrease | Baseline (no clamp) Cortisol levels, effect of GABA treatment (cortisol; dose escalation part, oral GABA, type 1 diabetes patients with undetectable c-peptide): downregulated; also recorded: decrease | epinephrine levels, Change from baseline, Mean (SD) (epinephrine; [2]): 0.800 (0.720) nmol/L | epinephrine levels, Change from baseline, Median (Min, Max) (epinephrine; [2]): 0.400 (0.30, 2.00) nmol/L | epinephrine levels, Observed value, Mean (SD) (epinephrine; [2]): 1.640 (1.014) nmol/L | epinephrine levels, Observed value, Median (Min, Max) (epinephrine; [2]): 1.200 (0.50, 2.90) nmol/L | epinephrine levels, Change from baseline, Mean (SD) (epinephrine; [3]): 0.000 (0.000) nmol/L | epinephrine levels, Change from baseline, Median (Min, Max) (epinephrine; [3]): 0.000 (0.00, 0.00) nmol/L | epinephrine levels, Observed value, Mean (SD) (epinephrine; [3]): 0.150 (0.000) nmol/L | epinephrine levels, Observed value, Median (Min, Max) (epinephrine; [3]): 0.150 (0.15, 0.15) nmol/L | epinephrine levels, Change from baseline, Mean (SD) (epinephrine; [4]): 0.000 (0.000) nmol/L | epinephrine levels, Change from baseline, Median (Min, Max) (epinephrine; [4]): 0.000 (0.00, 0.00) nmol/L | epinephrine levels, Observed value, Mean (SD) (epinephrine; [4]): 0.150 (0.000) nmol/L | epinephrine levels, Observed value, Median (Min, Max) (epinephrine; [4]): 0.150 (0.15, 0.15) nmol/L | epinephrine levels, Change from baseline, Mean (SD) (epinephrine; [5]): 0.800 (0.720) nmol/L | epinephrine levels, Change from baseline, Median (Min, Max) (epinephrine; [5]): 0.400 (0.30, 2.00) nmol/L | epinephrine levels, Observed value, Mean (SD) (epinephrine; [5]): 1.490 (1.014) nmol/L | epinephrine levels, Observed value, Median (Min, Max) (epinephrine; [5]): 1.050 (0.35, 2.75) nmol/L | epinephrine levels, Change from baseline, Mean (SD) (epinephrine; [6]): 0.560 (0.585) nmol/L | epinephrine levels, Change from baseline, Median (Min, Max) (epinephrine; [6]): 0.800 (−0.40, 1.10) nmol/L | epinephrine levels, Observed value, Mean (SD) (epinephrine; [6]): 1.400 (0.579) nmol/L | epinephrine levels, Observed value, Median (Min, Max) (epinephrine; [6]): 1.700 (0.60, 2.00) nmol/L | epinephrine levels, Change from baseline, Median (Min, Max) (epinephrine; [7]): 0.000 (0.00, 0.25) nmol/L | epinephrine levels, Observed value, Median (Min, Max) (epinephrine; [7]): 0.150 (0.15, 0.40) nmol/L | epinephrine levels, Change from baseline, Mean (SD) (epinephrine; [8]): 0.000 (0.000) nmol/L | epinephrine levels, Change from baseline, Median (Min, Max) (epinephrine; [8]): 0.000 (0.00, 0.00) nmol/L | epinephrine levels, Observed value, Mean (SD) (epinephrine; [8]): 0.150 (0.000) nmol/L | epinephrine levels, Observed value, Median (Min, Max) (epinephrine; [8]): 0.150 (0.15, 0.15) nmol/L | epinephrine levels, Change from baseline, Mean (SD) (epinephrine; [9]): 0.510 (0.564) nmol/L | epinephrine levels, Change from baseline, Median (Min, Max) (epinephrine; [9]): 0.600 (−0.40, 1.10) nmol/L | epinephrine levels, Observed value, Mean (SD) (epinephrine; [9]): 1.200 (0.630) nmol/L | epinephrine levels, Change from baseline, Mean (SD) (epinephrine; [10]): 0.670 (0.709) nmol/L | epinephrine levels, Change from baseline, Median (Min, Max) (epinephrine; [10]): 0.500 (0.00, 1.70) nmol/L | epinephrine levels, Observed value, Mean (SD) (epinephrine; [10]): 1.510 (1.070) nmol/L | epinephrine levels, Observed value, Median (Min, Max) (epinephrine; [10]): 1.200 (0.15, 2.60) nmol/L | epinephrine levels, Change from baseline, Mean (SD) (epinephrine; [11]): 0.000 (0.000) nmol/L | epinephrine levels, Change from baseline, Median (Min, Max) (epinephrine; [11]): 0.000 (0.00, 0.00) nmol/L | epinephrine levels, Observed value, Mean (SD) (epinephrine; [11]): 0.150 (0.000) nmol/L | epinephrine levels, Observed value, Median (Min, Max) (epinephrine; [11]): 0.150 (0.15, 0.15) nmol/L | epinephrine levels, Change from baseline, Mean (SD) (epinephrine; [12]): 0.000 (0.000) nmol/L | epinephrine levels, Change from baseline, Median (Min, Max) (epinephrine; [12]): 0.000 (0.00, 0.00) nmol/L | epinephrine levels, Observed value, Mean (SD) (epinephrine; [12]): 0.150 (0.000) nmol/L | epinephrine levels, Observed value, Median (Min, Max) (epinephrine; [12]): 0.150 (0.15, 0.15) nmol/L | epinephrine levels, Change from baseline, Mean (SD) (epinephrine; [13]): 0.670 (0.709) nmol/L | epinephrine levels, Change from baseline, Median (Min, Max) (epinephrine; [13]): 0.500 (0.00, 1.70) nmol/L | epinephrine levels, Observed value, Median (Min, Max) (epinephrine; [13]): 1.050 (0.00, 2.45) nmol/L | Counter regulatory response of Epinephrine, effect of GABA treatment (epinephrine; [1]): increased
